From patent publication US12404241B2 (Celgene Corporation, priority 2018, dated 2025)
Counter-ions that a name gives are not always drawn.

Target: T1, AR (Homo sapiens, UniProt P10275)
T1 construct: endogenous in cells; host or cells: VCaP cells
T1 sequence (P10275 1-920): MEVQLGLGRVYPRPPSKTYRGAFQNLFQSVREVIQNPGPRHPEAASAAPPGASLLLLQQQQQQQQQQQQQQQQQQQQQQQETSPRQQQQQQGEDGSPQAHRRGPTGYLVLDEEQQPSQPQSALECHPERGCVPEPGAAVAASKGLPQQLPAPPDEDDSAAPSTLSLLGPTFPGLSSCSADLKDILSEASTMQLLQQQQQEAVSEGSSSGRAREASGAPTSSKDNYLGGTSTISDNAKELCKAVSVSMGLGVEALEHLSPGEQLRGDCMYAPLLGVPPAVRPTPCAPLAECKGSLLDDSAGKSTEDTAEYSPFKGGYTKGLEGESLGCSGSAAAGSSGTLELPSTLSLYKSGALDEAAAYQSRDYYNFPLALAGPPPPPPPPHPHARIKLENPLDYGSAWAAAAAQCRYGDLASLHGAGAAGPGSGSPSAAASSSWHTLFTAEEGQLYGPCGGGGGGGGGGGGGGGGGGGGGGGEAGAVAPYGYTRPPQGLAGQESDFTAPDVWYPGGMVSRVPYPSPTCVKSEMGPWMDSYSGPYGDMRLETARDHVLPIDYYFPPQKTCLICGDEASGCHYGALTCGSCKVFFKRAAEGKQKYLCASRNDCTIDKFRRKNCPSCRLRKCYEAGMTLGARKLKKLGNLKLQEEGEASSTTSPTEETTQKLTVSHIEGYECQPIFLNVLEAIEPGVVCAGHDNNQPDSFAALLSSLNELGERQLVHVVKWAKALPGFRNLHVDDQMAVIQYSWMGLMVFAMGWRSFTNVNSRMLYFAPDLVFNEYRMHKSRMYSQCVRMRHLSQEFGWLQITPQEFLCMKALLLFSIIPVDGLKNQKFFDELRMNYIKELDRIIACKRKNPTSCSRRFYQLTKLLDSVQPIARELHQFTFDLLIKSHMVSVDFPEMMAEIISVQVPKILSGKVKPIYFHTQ
Test: VCAP AR Degradation Assay
Type: cell-based
Details: for Y (AR degradation efficiency, % of DMSO control): class symbols *; for DC50: class symbols A-C, read-out: DC50
Procedure, shortened: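 VCaP cells treated 24 h at 37 °C with a 10-point 1:3 series (top 5 μM final; 0.1% DMSO control). Lysate AR measured by sandwich ELISA, normalized to DMSO as percent of control; DC50, EC50 and lowest AR level (Y) from four-parameter logistic fit.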

SMILES	Y (AR degradation efficiency, % of DMSO control)	DC50
CCc1cc(N2C(=S)N(c3ccc(C#N)c(C(F)(F)F)c3)C(=O)C2(C)C)ccc1CCCN1CCN(CC(=O)Nc2cc(Cl)cc(NC3CCC(=O)NC3=O)c2)CC1 (stereo not drawn) [Example 89, N-(3-chloro-5-(2,6-dioxopiperidin-3-ylamino)phenyl)-2-(4-(3-(4-(3-(4-cyano-3-(trifluoromethyl)phenyl)-5,5-dimethyl-4-oxo-2-thioxoimidazolidin-1-yl)-2-ethylphenyl)propyl)piperazin-1-yl)acetamide]	* (0<Y<=25%)	< 100 nM
CCc1cc(N2C(=S)N(c3ccc(C#N)c(C(F)(F)F)c3)C(=O)C23CCC3)ccc1OCCN1CCN(CC(=O)Nc2cc(F)cc(NC3CCC(=O)NC3=O)c2)[C@H](C)C1 (stereo partly drawn) [Example 104, 2-((R)-4-(2-(4-(7-(4-cyano-3-(trifluoromethyl)phenyl)-8-oxo-6-thioxo-5,7-diazaspiro[3.4]octan-5-yl)-2-ethylphenoxy)ethyl)-2-methylpiperazin-1-yl)-N-(3-(2,6-dioxopiperidin-3-ylamino)-5-fluorophenyl)acetamide]	* (0<Y<=25%)	< 100 nM
CCc1cc(N2C(=S)N(c3ccc(C#N)c(C(F)(F)F)c3)C(=O)C2(C)C)ccc1OCCN1CCN(CC(=O)Nc2cc(Cl)cc(NC3CCC(=O)NC3=O)c2)CC1 (stereo not drawn) [Example 40, hydrochloride]	* (0<Y<=25%)	< 100 nM
CCc1cc(N2C(=S)N(c3ccc(C#N)c(C(F)(F)F)c3)C(=O)C2(C)C)ccc1OCCN1C[C@@H](C)N(CC(=O)Nc2cccc(N[C@H]3CCC(=O)NC3=O)c2)[C@@H](C)C1 [Example 285, 2-((2R,6S)-4-(2-(4-(3-(4-cyano-3-(trifluoromethyl)phenyl)-5,5-dimethyl-4-oxo-2-thioxoimidazolidin-1-yl)-2-ethylphenoxy)ethyl)-2,6-dimethylpiperazin-1-yl)-N-(3-((S)-2,6-dioxopiperidin-3-ylamino)phenyl)acetamide]	* (0<Y<=25%)	< 100 nM
C[C@@H]1CN(CCOc2ccc(N3C(=S)N(c4ccc(C#N)c(Cl)c4)C(=O)C3(C)C)cc2C2CC2)C[C@H](C)N1CC(=O)Nc1cc(F)cc(NC2CCC(=O)NC2=O)c1 (stereo partly drawn) [Example 226, 2-((2S,6R)-4-(2-(4-(3-(3-chloro-4-cyanophenyl)-5,5-dimethyl-4-oxo-2-thioxoimidazolidin-1-yl)-2-cyclopropylphenoxy)ethyl)-2,6-dimethylpiperazin-1-yl)-N-(3-(2,6-dioxopiperidin-3-ylamino)-5-fluorophenyl)acetamide]	* (0<Y<=25%)	< 100 nM
CC1(C)C(=O)N(c2ccc(C#N)c(C(F)(F)F)c2)C(=S)N1c1ccc(OCCN2CCN(CC(=O)Nc3cc(Cl)cc(NC4CCC(=O)NC4=O)c3)CC2)c(CCF)c1 (stereo not drawn) [Example 136, N-(3-chloro-5-(2,6-dioxopiperidin-3-ylamino)phenyl)-2-(4-(2-(4-(3-(4-cyano-3-(trifluoromethyl)phenyl)-5,5-dimethyl-4-oxo-2-thioxoimidazolidin-1-yl)-2-(2-fluoroethyl)phenoxy)ethyl)piperazin-1-yl)acetamide]	* (0<Y<=25%)	< 100 nM
C[C@@H]1CN(CCOc2ccc(N3C(=S)N(c4ccc(C#N)c(C(F)(F)F)c4)C(=O)C3(C)C)cc2C2CC2)CCN1CC(=O)Nc1cccc(NC2CCC(=O)NC2=O)c1 (stereo partly drawn) [Example 272, 2-((R)-4-(2-(4-(3-(4-cyano-3-(trifluoromethyl)phenyl)-5,5-dimethyl-4-oxo-2-thioxoimidazolidin-1-yl)-2-cyclopropylphenoxy)ethyl)-2-methylpiperazin-1-yl)-N-(3-(2,6-dioxopiperidin-3-ylamino)phenyl)acetamide]	* (0<Y<=25%)	< 100 nM

Further lines, results first:

Y (AR degradation efficiency, % of DMSO control)	DC50	SMILES
* (0<Y<=25%)	< 100 nM	C[C@@H]1CN(CCOc2ccc(N3C(=S)N(c4cnc(C#N)c(C(F)(F)F)c4)C(=O)C34CCC4)cc2C2CC2)C[C@H](C)N1CC(=O)Nc1cc(Cl)cc(NC2CCC(=O)NC2=O)c1 (stereo partly drawn) [Example 215, N-(3-chloro-5-(2,6-dioxopiperidin-3-ylamino)phenyl)-2-((2S,6R)-4-(2-(4-(7-(6-cyano-5-(trifluoromethyl)pyridin-3-yl)-8-oxo-6-thioxo-5,7-diazaspiro[3.4]octan-5-yl)-2-cyclopropylphenoxy)ethyl)-2,6-dimethylpiperazin-1-yl)acetamide]
* (0<Y<=25%)	< 100 nM	CC(F)(F)c1cc(N2C(=S)N(c3cnc(C#N)c(C(F)(F)F)c3)C(=O)C2(C)C)ccc1OCCN1CCN(CC(=O)Nc2cccc(NC3CCC(=O)NC3=O)c2)CC1 (stereo not drawn) [Example 60, 2-(4-(2-(4-(3-(6-cyano-5-(trifluoromethyl)pyridin-3-yl)-5,5-dimethyl-4-oxo-2-thioxoimidazolidin-1-yl)-2-(1,1-difluoroethyl)phenoxy)ethyl)piperazin-1-yl)-N-(3-(2,6-dioxopiperidin-3-ylamino)phenyl)acetamide]
* (0<Y<=25%)	< 100 nM	CCc1cc(N2C(=S)N(c3cnc(C#N)c(C(F)(F)F)c3)C(=O)C2(C)C)ccc1OCCN1CCN(CC(=O)Nc2cc(NC3CCC(=O)NC3=O)ccc2F)CC1 (stereo not drawn) [Example 64, 2-(4-(2-(4-(3-(6-cyano-5-(trifluoromethyl)pyridin-3-yl)-5,5-dimethyl-4-oxo-2-thioxoimidazolidin-1-yl)-2-ethylphenoxy)ethyl)piperazin-1-yl)-N-(5-(2,6-dioxopiperidin-3-ylamino)-2-fluorophenyl)acetamide]
* (0<Y<=25%)	< 100 nM	CCc1cc(N2C(=S)N(c3cnc(C#N)c(C(F)(F)F)c3)C(=O)C23CCC3)ccc1OCCN1CCN(CC(=O)Nc2cccc(NC3CCC(=O)NC3=O)c2)[C@H](C)C1 (stereo partly drawn) [Example 108, 2-((R)-4-(2-(4-(7-(6-cyano-5-(trifluoromethyl)pyridin-3-yl)-8-oxo-6-thioxo-5,7-diazaspiro[3.4]octan-5-yl)-2-ethylphenoxy)ethyl)-2-methylpiperazin-1-yl)-N-(3-(2,6-dioxopiperidin-3-ylamino)phenyl)acetamide]
* (0<Y<=25%)	< 100 nM	CCc1cc(N2C(=S)N(c3cnc(C#N)c(C(F)(F)F)c3)C(=O)C2(C)C)ccc1OCCN1CCN(CC(=O)Nc2cc(Cl)cc(NC3CCC(=O)NC3=O)c2)[C@@H](C)C1 (stereo partly drawn) [Example 131, N-(3-chloro-5-(2,6-dioxopiperidin-3-ylamino)phenyl)-2-((S)-4-(2-(4-(3-(6-cyano-5-(trifluoromethyl)pyridin-3-yl)-5,5-dimethyl-4-oxo-2-thioxoimidazolidin-1-yl)-2-ethylphenoxy)ethyl)-2-methylpiperazin-1-yl)acetamide]
* (0<Y<=25%)	< 100 nM	CC1(C)C(=O)N(c2cnc(C#N)c(C(F)(F)F)c2)C(=S)N1c1ccc(OCCN2CCN(CC(=O)Nc3cc(Cl)cc(NC4CCC(=O)NC4=O)c3)CC2)c(CC(F)F)c1 (stereo not drawn) [Example 67, N-(3-chloro-5-(2,6-dioxopiperidin-3-ylamino)phenyl)-2-(4-(2-(4-(3-(6-cyano-5-(trifluoromethyl)pyridin-3-yl)-5,5-dimethyl-4-oxo-2-thioxoimidazolidin-1-yl)-2-(2,2-difluoroethyl)phenoxy)ethyl)piperazin-1-yl)acetamide]
** (25%<Y<=35%)	100 to 500 nM	CCc1cc(N2C(=S)N(c3cnc(C#N)c(C(F)(F)F)c3)C(=O)C2(C)C)ccc1O[C@@H](C)CN1C[C@@H](C)N(CC(=O)Nc2cccc(NC3CCC(=O)NC3=O)c2)[C@@H](C)C1 (single isomer, unassigned) [Example 240]
* (0<Y<=25%)	100 to 500 nM	CC[C@@H]1CN(CCOc2ccc(N3C(=S)N(c4cnc(C#N)c(C(F)(F)F)c4)C(=O)C34CCC4)cc2C2CC2)CCN1CC(=O)Nc1cccc(NC2CCC(=O)NC2=O)c1 (stereo partly drawn) [Example 262, 2-((R)-4-(2-(4-(7-(6-cyano-5-(trifluoromethyl)pyridin-3-yl)-8-oxo-6-thioxo-5,7-diazaspiro[3.4]octan-5-yl)-2-cyclopropylphenoxy)ethyl)-2-ethylpiperazin-1-yl)-N-(3-(2,6-dioxopiperidin-3-ylamino)phenyl)acetamide]
